Results on three molecules are retold here after US20250090480A1, “UNIQUE ANALOGS OF NATURAL LIGNANS USEFUL FOR TREATING TRIPLE NEGATIVE BREAST CANCER” (University of Kentucky Research Foundation, priority 2023, published 2025).

The test system of series [1] is TNBC cell lines MDA-MB-231, MDA-MB-468, SUM159. Nature of the series: MTT cell viability assay, 24 h exposure, three TNBC cell lines. Type of series: cell-based. As for the experimental part:
Cell Viability Assay for Compounds 1-8: The cytotoxicity for compounds 1-8 was assessed in three Triple Negative Breast Cancer cell lines: MDA-MB-231, MDA-MB-468, an SUM159. Cells were grown to 80% confluency in T75 flasks. Media was discarded and trypsin added for 5 minutes to detach cells. Media was added to neutralize the trypsin and mixture was transferred to centrifuge tube. After centrifugation at 2000 RPM for 5 minutes, the pellet was washed with PBS and resuspended in 2 mL appropriate media. Cell density was assessed via hemocytometer and solution diluted to 40,000 cells/mL. A 96-well clear bottom plate was prepared by adding media to rows 1 and 8 and columns 1, 2, 11, and 12 to prevent evaporation from impacting sample wells. Cells were plated in the inner wells with 100 μL per well (4,000 cells/well). Plates were placed in the incubator at 37° C. and 5-10% CO2 overnight to allow cells to acclimate and adhere.
Compounds 1-8 were prepared as 80 mM stock solutions in DMSO. The stock was diluted 20 μL to 4 mL with the appropriate media to yield a new stock concentration of 400 μM and DMSO concentration of 0.5% v/v. This stock was used for six serial dilutions (1/2×) to obtain a range of concentrations from 6.25 to 400 μM. […]
Plates were removed from the incubator and treatment solutions removed. […] Plates were then read on a Biotek Synergy H1 Plate Reader at 570 nm (peak absorbance). […]

The test system of a further series is SUM159 mammosphere. The experiment in a line: Mammosphere formation assay in SUM159. Type of series: cell-based. The settings on record: SUM159, half or full IC50 concentration, 6 days. As for the experimental part: The ability of Compounds 1, 7A, and 7B to prevent mammosphere formation was assessed in SUM159, a Triple Negative Breast Cancer cell line. Cells were grown to 80% confluency in T75 flasks in DMEM supplemented with 10% FBS, 1% amphotericin, 1% penicillin/streptomycin, and 5 μg/mL insulin, Media was discarded and trypsin added for 5 minutes to detach cells. Media was added to neutralize the trypsin and mixture was transferred to centrifuge tube. After centrifugation at 2000 RPM for 5 minutes, the pellet was washed with PBS and resuspended in 2 mL mammosphere media. Mammosphere media consists of MammoCult Human Medium (StemCell Technologies) supplemented with Heparin ([…], StermCellTechnologies) and Hydrocortisone (0.48 μg/ml, StemCell Technologies). Cell density was assessed via hemocytometer and solution diluted to 8,000 cells/mL in mammosphere media. A 24-well ultra-low-attachment clear bottom plate was prepared. Cells were plated in all wells with 500 μL per well (4,000 cells/well). […]
(§1) To further characterize the improved bioactivity of compounds 7A and 7B to compound 1, colonogenic and mammmosphere formation assays were performed in TNBC cell line SUM159 at full and half IC50 values (FIG. 7A-7B). […] Using colony formation assay, we evaluated the antiproliferative effects of 7A in SUM159 cells. […]

In a further series the test system is SUM159. Nature of the series: Colony formation assay in SUM159. The settings on record: SUM159, half and full IC50 concentrations, 6 days. It counts as cell-based. As for the experimental part:
The ability of compounds 1, 7A, and 7B to prevent colony formation was assessed in SUM159, a Triple Negative Breast Cancer cell line. Cells were grown to 80% confluency in T75 flasks in DMEM supplemented with 10% FBS, 1% amphotericin, 1% penicillin/streptomycin, and 5 μg/mL insulin. Media was discarded and trypsin added for 5 minutes to detach cells. Media was added to neutralize the trypsin and mixture was transferred to centrifuge tube. After centrifugation at 2000 RPM for 5 minutes, the pellet was washed with PBS and resuspended in 2 mL of above media. Cell density was assessed via hemocytometer and solution diluted to 2,000 cells/mL. Cells were plated in 6-well clear bottom plates at 2,000 cells/well. Treatment conditions included control (0.5% DMSO), and compounds 1, 7A, and 7B at both half and full IC5. concentrations, All treatments were plated in triplicate for a total of 21 wells used. Plates were placed in the incubator at 37° C. and 5-10% CO2 for six days. […]
as §1

Series [2] concerns TNBC cells, including MDA-MB-231 and MDA-MB-468 cells. As to conditions: 24 h; read-out: activity of machilin D (comparison value); cited from earlier work.

Regarding `C/C=C/c1ccc(O[C@@H](C)[C@@H](OCC(C)C)c2ccc(O)c(OC)c2)c(OC)c1` (racemic) [Compound 7A], the “cytotoxicity (IC50) comparison of diastereomers” value in series [1] (MTT, all three TNBC cell lines) is given as “significantly improved cytotoxicity values over 7B”. Also, in the series on SUM159 mammosphere, the mammosphere growth result is given as “effective inhibition”. Moreover, the colony formation result in the series with SUM159 is given as “colony formation was inhibited”.

Turning to `C/C=C/c1ccc(O[C@@H](C)[C@@H](O)c2ccc(O)c(OC)c2)c(OC)c1` [machilin D], the IC50 in series [2] is roughly 100 µM.

On to machilin C/D [Compound 1], for which the IC50 in series [1] (24 h exposure, range across MDA-MB-468, MDA-MB-231, SUM159, diastereomeric mixture) lay in the range of 167 to 180 µM. Also, the mammosphere growth result in the series on SUM159 mammosphere is “slow colony formation and mammosphere growth”. Moreover, the colony formation entry in the series on SUM159 was “slow colony formation”.
